# Source: patent US7176239B2, “Methods and compositions for treatment of Ataxia-telangeictasia” (priority 2003, dated 2007)
# Structures can show the parent of a compound that is named as a salt.
# How the values were obtained:
# [1] = test system: AT cells (AT22); assay: Colony forming-efficiency assay, cell survival with increasing CuCl2; type: cell-based, human; details: AT22 versus VA13 cells, increasing concentrations of CuCl2; FIG. 4A
# Experimental: Colony forming-efficiency experiments were performed as previously described (See R. E. Shackelford et al. The Ataxia telangiectasia Gene Product Is Required for Oxidative Stress-induced G1 and G2 Checkpoint Function in Human Fibroblasts, 276 J. BIOL. CHEM. 21951-21959 (2001)). In brief, exponentially growing cells were plated at 2,000 cells/100 mm tissue culture dish in 10 ml appropriate media, allowed to adhere 6 h, […], aspirin, diethylenetriaminepentaacetic acid (DTPA), hygromycin, and desferrioxamine mesylate were obtained from Sigma Chemical Corp (St. Louis, Mo.). Fetal calf serum (FCS) and Dulbecco's Modified Eagle's Medium (DMEM) were obtained from Invitrogen (Rockville, Md.). Culture dishes were obtained from Becton Dickinson (Franklin Lakes, N.J.).
# Following treatment, the pates were washed 2× with media, the media replaced, and colonies fixed and stained after 14 days in culture by water: methanol addition (1:1) containing crystal violet (1 g/L). Colonies consisting of cell clusters containing greater than 50 cells were counted under a dissecting microscope. […] Standard deviations (error bars) were calculated from each experimental data point divided by the mean untreated value and averaged between experiments to obtain the mean standard deviation. […]
# [2] = test system: ATDM-1, and ATDM-2 cells; assay: Mitotic delay assay (mitotic index after FeCl2 treatment); type: cell-based, human; details: increasing concentrations of FeCl2, 15 min treatment, 2 h culture; NHF1 cells for comparison; fluorescence microscopy; FIG. 3
# Experimental: Mitotic delay assays were performed as previously described (See R. E. Shackelford et al. The Ataxia telangiectasia Gene Product Is Required for Oxidative Stress-induced G1 and G2 Checkpoint Function in Human Fibroblasts, 276 J. BIOL. CHEM. 21951–21959 (2001)). In brief, cells were plated onto 100 mm tissue culture plates and incubated 48–72 h (to approximately 50% confluency). The cells were then treated with FeCl2 for 15 m as in the colony forming-efficiency assay, washed 2× with media, cultured 2 h, and the media was removed. The cells were fixed in 5 ml cold methanol for 10 min and air-dried. The cells were stained with 0.2 μg/ml 4′,6-diamidino-2-phenylindole (DAPI) in water and examined by fluorescence microscopy. The percentage of mitotic cells (mitotic delay) was determined by counts of 5,000 cells. Mitotic delay experiments were performed in triplicate and the standard deviations were calculated as in the colony forming-efficiency assays. (FIG. 3).
# [3] = test system: AT cells; details: AT cells treated with the antioxidant; Gatei et al. 2001; cited from earlier work
# [4] = test system: AT cells (AT22, ATDM-1, ATDM-2); assay: Colony forming-efficiency assay, desferrioxamine/aspirin pretreatment then t-BOOH toxicity; type: cell-based, human; details: for resistance to the toxic effects of t-BOOH exposure versus length of pretreatment / resistance to the toxic effects of t-BOOH versus concentration of pretreatment agent: AT22 cells; for resistance to the toxic effects of t-BOOH exposure versus length of pretreatment / resistance to t-BOOH toxicity (cell survival, percentage of untreated cells): desferrioxamine 100 μM, aspirin 0.3 mM; for resistance to the toxic effects of t-BOOH exposure versus length of pretreatment: FIG. 9; for resistance to the toxic effects of t-BOOH versus concentration of pretreatment agent: increasing concentrations of desferrioxamine or aspirin, FIG. 10A/10B; for resistance to t-BOOH toxicity (cell survival, percentage of untreated cells): pretreatment, increasing concentrations of t-BOOH, FIG. 8A
# Experimental: Colony forming-efficiency experiments were performed as previously described (See R. E. Shackelford et al. The Ataxia telangiectasia Gene Product Is Required for Oxidative Stress-induced G1 and G2 Checkpoint Function in Human Fibroblasts, 276 J. BIOL. CHEM. 21951-21959 (2001)). In brief, exponentially growing cells were plated at 2,000 cells/100 mm tissue culture dish in 10 ml appropriate media, allowed to adhere 6 h, and treated 15 min with varying concentrations of t-BOOH or FeCl2 FeCl2, aspirin, diethylenetriaminepentaacetic acid (DTPA), hygromycin, and desferrioxamine mesylate were obtained from Sigma Chemical Corp (St. Louis, Mo.). Fetal calf serum (FCS) and Dulbecco's Modified Eagle's Medium (DMEM) were obtained from Invitrogen (Rockville, Md.). Culture dishes were obtained from Becton Dickinson (Franklin Lakes, N.J.).
# Following treatment, the pates were washed 2× with media, the media replaced, and colonies fixed and stained after 14 days in culture by water: methanol addition (1:1) containing crystal violet (1 g/L). Colonies consisting of cell clusters containing greater than 50 cells were counted under a dissecting microscope. Unless otherwise noted, where desferrioxamine and/or aspirin pretreatment was employed, the cells were plated in desferrioxamine, aspirin, or desferrioxamine and aspirin, and allowed to adhere for 6 h. The plates were then washed 4× with media and treated with t-BOOH as above. Data indicates survival as a percentage of untreated cells. The AT22 and VA13 tumor cell lines were used at passages 20–40. The primary NHF1, ATDM-1, and ATDM-2 cell strains were used at passages 6–18. pEBS7 and pEBS7-YZ5 cells were used at passages 15–20. All experiments were done at least twice in triplicate. Standard deviations (error bars) were calculated from each experimental data point divided by the mean untreated value and averaged between experiments to obtain the mean standard deviation. (FIGS. 6–10B).
# [5] = test system: AT cells (AT22, ATDM-1, ATDM-2); assay: Colony forming-efficiency assay, long-term culture with iron chelating agent or quercetin; type: cell-based, human; details: long-term culture (14 days) with increasing concentrations; FIG. 11A, 13A
# Experimental: Preparation of cells is as described previously in Example 1. Colony forming-efficiency experiments were performed as previously described (See R. E. Shackelford et al. The Ataxia telangiectasia Gene Product Is Required for Oxidative Stress-induced G1 and G2 Checkpoint Function in Human Fibroblasts, 276 J. BIOL. CHEM. 21951–21959 (2001)). In brief, exponentially growing cells were plated at 2,000 cells/100 mm tissue culture dish in 10 ml appropriate media with an added iron chelating agent and cultured for 14 days. The resulting colonies were fixed and stained after 14 days culture by water:methanol addition (1:1) containing crystal violet (1 g/L). Colonies consisting of cell clusters containing greater than 50 cells were counted under a dissecting microscope. For experiments involving apoferritin or quercetin pre-exposure on t-BOOH resistance, the cells were allowed to adhere 6 h in increasing aopferritin or quercetin concentrations, washed 4× with 3 ml media, treated with 10 mM t-BOOH, washed 1× with 3 ml media, and allowed to grow for 14 days in 10 ml appropriate media. Data indicates survival as a percentage of untreated cells. […] Standard deviations (error bars) were calculated from each experimental data point divided by the mean untreated value and averaged between triplicate experiments to obtain the mean standard deviation. […]
# [6] = test system: AT cells (AT22, ATDM-1, ATDM-2); assay: Colony forming-efficiency assay, apoferritin/quercetin pretreatment then t-BOOH toxicity; type: cell-based, human; details: 6 h pretreatment with increasing concentrations, then 10 mM t-BOOH, FIG. 12A, 14A
# Experimental: (§1) Preparation of cells is as described previously in Example 1. Colony forming-efficiency experiments were performed as previously described (See R. E. Shackelford et al. The Ataxia telangiectasia Gene Product Is Required for Oxidative Stress-induced G1 and G2 Checkpoint Function in Human Fibroblasts, 276 J. BIOL. CHEM. 21951–21959 (2001)). In brief, exponentially growing cells were plated at 2,000 cells/100 mm tissue culture dish in 10 ml appropriate media with an added iron chelating agent and cultured for 14 days. The resulting colonies were fixed and stained after 14 days culture by water:methanol addition (1:1) containing crystal violet (1 g/L). Colonies consisting of cell clusters containing greater than 50 cells were counted under a dissecting microscope. For experiments involving apoferritin or quercetin pre-exposure on t-BOOH resistance, the cells were allowed to adhere 6 h in increasing aopferritin or quercetin concentrations, washed 4× with 3 ml media, treated with 10 mM t-BOOH, washed 1× with 3 ml media, and allowed to grow for 14 days in 10 ml appropriate media. Data indicates survival as a percentage of untreated cells. The AT22 and VA13 tumor cell lines were used at passages 20–40. The primary NHF1, ATDM-1, and ATDM-2 cell strains were used at passages 6–19. All experiments were done at least twice in triplicate. Standard deviations (error bars) were calculated from each experimental data point divided by the mean untreated value and averaged between triplicate experiments to obtain the mean standard deviation. (FIGS. 11A–14C).
# [7] = test system: normal cells (VA13, NHF1); assay: as above; type: cell-based, human; details: 6 h pretreatment with increasing concentrations, then 10 mM t-BOOH, FIG. 12A, 14A
# Experimental: as §1
molecule,measurement,setting,value
[Cl][Cu][Cl] [CuCl2],"cell survival (percentage of untreated cells), sensitivity to CuCl2",[1],increased sensitivity
[Cl][Fe][Cl] [FeCl2],"mitotic activity (percentage of the mitotic index of the mock-treated population), G2 checkpoint",[2],induces a pATM-dependent G2 checkpoint
O=C(O)CCCCC1CCSS1 (stereo not drawn) [a-lipoic acid],genotoxic stress-induced proteins,[3],lowered
CC(=O)Oc1ccccc1C(=O)O [aspirin],resistance to the toxic effects of t-BOOH exposure versus length of pretreatment,[4],increases with longer exposure
same,resistance to the toxic effects of t-BOOH versus concentration of pretreatment agent,[4],increase the resistance
same,"resistance to t-BOOH toxicity (cell survival, percentage of untreated cells)",[4],increased resistance to t-BOOH toxicity
"CC(=O)N(O)CCCCCNC(=O)CCC(=O)N(O)CCCCCNC(=O)CCC(=O)N(O)CCCCCN [desferrioxamine, desferrioxamine mesylate]",resistance to the toxic effects of t-BOOH exposure versus length of pretreatment,[4],increases with longer exposure
same,resistance to the toxic effects of t-BOOH versus concentration of pretreatment agent,[4],increase the resistance
same,"resistance to t-BOOH toxicity (cell survival, percentage of untreated cells)",[4],increased resistance to t-BOOH toxicity
O=c1c(O)c(-c2ccc(O)c(O)c2)oc2cc(O)cc(O)c12 [quercetin],"plating efficiency (cell survival, percentage of untreated cells)",[5],increases the plating efficiency
same,"resistance to t-BOOH toxicity (cell survival, percentage of untreated cells)",[6],increased resistance to t-BOOH toxicity
same,"resistance to t-BOOH toxicity (cell survival, percentage of untreated cells)",[7],increased resistance to t-BOOH toxicity
apoferritin,"plating efficiency (cell survival, percentage of untreated cells)",[5],increases the plating efficiency
same,"resistance to t-BOOH toxicity (cell survival, percentage of untreated cells)",[6],increased resistance to t-BOOH toxicity
same,"resistance to t-BOOH toxicity (cell survival, percentage of untreated cells)",[7],increased resistance to t-BOOH toxicity
